# Data published in US10660333B2, “Substituted 2-heterocyclylimidazolylcarboxamides as pesticides” (BAYER CROPSCIENCE AKTIENGESELLSCHAFT, priority 2016, dated 2020).
# Read-outs that look alike come from different tables or passages of the source.
# How the values were obtained:
# [1] = log P by HPLC on reversed-phase (C18) columns, OECD Guideline 117; assay type: physicochemical; conditions: for chromatographic logP: reversed-phase (C18) HPLC column
# Myzus persicae [2] = experiment: Myzus persicae - spray test; assay type: in vivo; conditions: 500 g/ha, Chinese cabbage leaf discs, after 5 days; for pest or weed control at 500 g/ha: Myzus persicae, foliar, 120 h, read-out: efficacy (aphids killed)
# Description: Myzus persicae—Spray Test
# (§1) To produce a suitable active ingredient formulation, 1 part by weight of active ingredient is dissolved with the specified parts by weight of solvent and made up to the desired concentration with water containing an emulsifier concentration of 1000 ppm. To produce further test concentrations, the formulation is diluted with emulsifier-containing water.
# (§2) Discs of Chinese cabbage leaves (Brassica pekinensis) infested by all stages of the green peach aphid (Myzus persicae) are sprayed with an active ingredient formulation of the desired concentration.
# (§3) After 5 days, the efficacy in % is determined. 100% means that all the aphids have been killed; 0% means that no aphids have been killed.
# Myzus persicae [3] = experiment: Myzus persicae - oral test; assay type: in vivo; conditions: 4 ppm, oral, after 5 days; for pest or weed control at 4 ppm: Myzus persicae, 120 h, read-out: efficacy (aphids killed)
# Description: (§4) To produce a suitable active ingredient formulation, 1 part by weight of active ingredient is dissolved with the specified parts by weight of solvent and made up to the desired concentration with water.
# (§5) 50 μl of the active ingredient formulation are transferred into microtitre plates and made up to a final volume of 200 μl with 150 μl of IPL41 insect medium (33%+15% sugar). Subsequently, the plates are sealed with parafilm, which a mixed population of green peach aphids (Myzus persicae) within a second microtitre plate is able to puncture and imbibe the solution.
# as §3
# Myzus persicae [4] = experiment: Myzus persicae - spray test (MYZUPE), comparison with prior art; assay type: in vivo; conditions: Myzus persicae, 120 h, 5 dat, read-out: % efficacy; for Emax at 4 g/ha: 4 g/ha (g of ai/ha); for Emax at 20 g/ha: 20 g/ha (g of ai/ha); for Emax at 100 g/ha: 100 g/ha (g of ai/ha)
# Description: Myzus persicae—Spray Test (MYZUPE)
# as §1, §2
# (§6) After the desired period of time, the efficacy in % is determined. 100% means that all the aphids have been killed; 0% means that no aphids have been killed.
# Myzus persicae [5] = experiment: Myzus persicae - oral test (MYZUPE O), comparison with prior art; assay type: in vivo; conditions: Myzus persicae, po, 120 h, 5 dat, read-out: % efficacy
# Description: Myzus persicae—Oral Test (MYZUPE O)
# as §4, §5, §6
# Myzus persicae [6] = experiment: Myzus persicae - spray test (MYZUPE S), bell pepper plants; assay type: in vivo; conditions: Myzus persicae, 144 h, 6 dat, read-out: % efficacy
# Description: Myzus persicae—Spray Test (MYZUPE S)
# (§7) To produce a suitable active ingredient formulation, 1 part by weight of active ingredient is dissolved with the specified parts by weight of solvent and made up to the desired concentration with water containing an emulsifier concentration of 1000 ppm. To produce further test concentrations, the formulation is diluted with emulsifier-containing water. If the addition of ammonium salts or/and penetrants is required, these are each added in a concentration of 1000 ppm to the formulation solution.
# Bell pepper plants (Capsicum annuum) severely infested with the green peach aphid (Myzus persicae) are treated by spraying with the active ingredient formulation in the desired concentration.
# After the desired time, the kill in % is determined. 100% means that all the animals have been killed; 0% means that no animals have been killed.
# Myzus persicae [7] = experiment: Myzus persicae - drench test (MYZUPE D), savoy cabbage; assay type: in vivo; conditions: Myzus persicae, soil, 240 h, 10 dat, read-out: % efficacy
# Description: Myzus persicae—Drench Test (MYZUPE D)
# To produce a suitable active ingredient formulation, 1 part by weight of active ingredient is mixed with the specified amounts of solvent and emulsifier, and the concentrate is diluted with water to the desired concentration, it being necessary to include the volume of soil which is drenched in the calculation. It should be ensured that a concentration of 40 ppm of emulsifier in the soil is not exceeded. To produce further test concentrations, water is used for dilution.
# Savoy cabbage (Brassica oleracea) in pots with soil and infested by all stages of the green peach aphid (Myzus persicae) is watered with an active ingredient formulation of the desired concentration.
# as §6
# Aphis gossypii = Aphis gossypii - spray test (APHIGO S), cotton plants; assay type: in vivo; conditions: 144 h, 6 dat, read-out: % efficacy
# Description: Aphis gossypii—Spray Test (APHIGO S)
# as §7
# Cotton plants (Gossypium hirsutum) heavily infested by the cotton aphid (Aphis gossypii) are sprayed with an active ingredient formulation of the desired concentration.
# After the desired time, the kill in % is determined. 100% means that all the aphids have been killed; 0% means that no aphids have been killed.
# Boophilus microplus = Boophilus microplus - injection test; assay type: in vivo; conditions: 20 μg/animal, injection into engorged adult female cattle ticks, after 7 days
# Description: Boophilus microplus—Injection Test
# Solvent: Dimethyl Sulphoxide
# To produce a suitable active ingredient formulation, 10 mg of active ingredient are mixed with 0.5 ml of solvent and the concentrate is diluted to the desired concentration with solvent.
# 1 μl of the active ingredient solution is injected into the abdomen of 5 engorged adult female cattle ticks (Boophilus microplus). The animals are transferred into dishes and kept in a climate-controlled room.
# Efficacy is assessed after 7 days by laying of fertile eggs. Eggs which are not visibly fertile are stored in a climate-controlled cabinet until the larvae hatch after about 42 days. An efficacy of 100% means that none of the ticks has laid any fertile eggs; 0% means that all the eggs are fertile.
# Tetranychus urticae = Tetranychus urticae - spray test, OP-resistant; assay type: in vivo; conditions: 500 g/ha, bean leaf discs, after 6 days
# Description: Tetranychus urticae—Spray Test, OP-Resistant
# as §1
# Discs of bean leaves (Phaseolus vulgaris) infested with all stages of the greenhouse red spider mite (Tetranychus urticae) are sprayed with an active ingredient formulation of the desired concentration.
# After 6 days, the efficacy in % is determined. 100% means that all the spider mites have been killed; 0% means that no spider mites have been killed.
# [8] = HPLC RP C18, acidic range pH 2.7, 0.1% formic acid/acetonitrile, read-out: logP[a]
# [9] = HPLC RP C18, neutral range pH 7.8, ammonium hydrogencarbonate/acetonitrile, read-out: logP[n]
# [10] = HPLC RP C18, acidic range pH 2.7, 0.1% formic acid/acetonitrile
# [11] = HPLC RP C18, neutral range pH 7.8, ammonium hydrogencarbonate/acetonitrile
SMILES,"chromatographic logP [1, 8]","chromatographic logP [1, 9]","logP[a] [1, 10]","logP[n] [1, 11]",pest or weed control at 500 g/ha (Myzus persicae [2]) [%],pest or weed control at 4 ppm (Myzus persicae [3]) [%],Emax at 20 g/ha (Myzus persicae [4]) [%],Emax at 100 g/ha (Myzus persicae [4]) [%],Emax at 500 g/ha (Myzus persicae [4]) [%],Emax at 0.8 ppm (Myzus persicae [5]) [%],Emax at 4 ppm (Myzus persicae [5]) [%],Emax at 0.16 ppm (Myzus persicae [6]) [%],Emax at 0.8 ppm (Myzus persicae [6]) [%],Emax at 0.16 ppm (Myzus persicae [7]) [%],Emax at 0.8 ppm (Myzus persicae [7]) [%],Emax at 0.16 ppm (Aphis gossypii) [%],Emax at 0.8 ppm (Aphis gossypii) [%],efficacy (laying of fertile eggs) (Boophilus microplus) [%],efficacy (aphids killed) (Myzus persicae [2]) [%],efficacy (aphids killed) (Myzus persicae [3]) [%],other results
CCN(C(=O)c1cnc(C2CC(c3ccccc3)=NO2)n1C)c1cccnc1 (centres unmarked) [Example I-1-8],–,–,1.74,1.92,–,–,–,–,–,–,–,–,–,–,–,–,–,–,100,100,efficacy (spider mites killed) (Tetranychus urticae): 90%
CN(C(=O)c1cnc(C2CC(c3ccc(C(F)(F)F)cc3)=NO2)n1C)c1cccnc1 (centres unmarked) [Example I-1-23],–,–,2.18,2.37,–,–,–,–,–,–,–,–,–,–,–,–,–,–,90,100,efficacy (spider mites killed) (Tetranychus urticae): 100%
CN(C(=O)c1cnc(C2CC(c3ccccn3)=NO2)n1C)c1cccnc1 (centres unmarked) [Example I-1-26],1.01,1.27,–,–,90,100,90,90,90,100,100,100,100,95,98,–,100,–,–,–,–
CN(C(=O)c1cnc(C2CC=NO2)n1C)c1cccnc1 (centres unmarked) [Example I-1-30],0.1,0.57,–,–,90,90,70,70,90,100,90,95,100,95,95,–,80,–,–,–,–

# Now from value to compound, other results behind:
"chromatographic logP [1, 8]","chromatographic logP [1, 9]","logP[a] [1, 10]","logP[n] [1, 11]",SMILES,pest or weed control at 500 g/ha (Myzus persicae [2]) [%],pest or weed control at 4 ppm (Myzus persicae [3]) [%],Emax at 20 g/ha (Myzus persicae [4]) [%],Emax at 100 g/ha (Myzus persicae [4]) [%],Emax at 500 g/ha (Myzus persicae [4]) [%],Emax at 0.8 ppm (Myzus persicae [5]) [%],Emax at 4 ppm (Myzus persicae [5]) [%],Emax at 0.16 ppm (Myzus persicae [6]) [%],Emax at 0.8 ppm (Myzus persicae [6]) [%],Emax at 0.16 ppm (Myzus persicae [7]) [%],Emax at 0.8 ppm (Myzus persicae [7]) [%],Emax at 0.16 ppm (Aphis gossypii) [%],Emax at 0.8 ppm (Aphis gossypii) [%],efficacy (laying of fertile eggs) (Boophilus microplus) [%],efficacy (aphids killed) (Myzus persicae [2]) [%],efficacy (aphids killed) (Myzus persicae [3]) [%],other results
0.85,1.15,–,–,CN(C(=O)c1cnc(C2CC(C3CC3)=NO2)n1C)c1cccnc1 (centres unmarked) [Example I-1-4],90,100,100,90,90,100,100,98,100,95,100,90,100,–,–,–,Emax at 4 g/ha (Myzus persicae [4]): 70%
1.45,1.72,–,–,CN(C(=O)c1cnc(C2CC(c3ccccc3)=NO2)n1C)c1cccnc1 (centres unmarked) [Example I-1-7],90,100,–,90,90,100,100,95,100,80,90,50,100,80,–,–,–
1.39,1.63,–,–,"CN(C(=O)c1cnc(C2CC(c3cccc(C#N)c3)=NO2)n1C)c1cccnc1 (centres unmarked) [Example I-1-19, 2-[3-(3-Cyanophenyl)-4,5-dihydro-1,2-oxazol-5-yl]-N,1-dimethyl-N-(pyridin-3-yl)-1H-imidazole-5-carboxamide]",100,100,–,–,–,–,–,–,–,–,–,–,–,95,–,–,–
–,–,0.54,1.11,CN(C(=O)c1cnc(C2CC(c3ccncc3)=NO2)n1C)c1cccnc1 (centres unmarked) [Example I-1-28],–,–,–,–,–,–,–,–,–,–,–,–,–,80,90,100,–
1.45,1.59,–,–,CN(C(=O)c1cnc(C2CC(C(F)(F)F)=NO2)n1C)c1cccnc1 (centres unmarked) [Example I-1-32],90,100,–,–,90,100,100,20,96,90,99,90,97,–,–,–,–
1.84,1.97,–,–,CN(C(=O)c1cnc(C2CC(c3ccc(C(F)(F)F)cn3)=NO2)n1C)c1cccnc1 (centres unmarked) [Example I-1-36],100,100,90,90,100,100,100,90,99,70,80,–,97,–,–,–,Emax at 4 g/ha (Myzus persicae [4]): 100%
